The values below are quoted from earlier work in US6497890B2, “Anti-wrinkle preparation and method of reducing wrinkles in facial skin and neck” (priority 1996, dated 2002).

SMILES strings stand for the structures. A value given as a limit tells only on which side of the number the result lay.

The first data set concerns rheumatoid arthritis patients. Particulars: RA patients; mostly.
Consider `CN(Cc1cnc2nc(N)nc(N)c2n1)c1ccc(C(=O)N[C@@H](CCC(=O)O)C(=O)O)cc1` [Methotrexate], for which the onset of action is reported as not above 1 month.

The data set is the same for the next values; noted with them: remittive agents in RA.
In the case of `O=C(O)c1cc(/N=N/c2ccc(S(=O)(=O)Nc3ccccn3)cc2)ccc1O` [Sulfasalazine], the “EFFICACY (estimated rate)” value is listed as “Intermediate” and the “TOXICITY (estimated rate)” value is reported as “Intermediate”.

Turning to `Cn1cnc([N+](=O)[O-])c1Sc1ncnc2nc[nH]c12` [Azathioprine], the “EFFICACY (estimated rate)” value is recorded as “Intermediate” and the “TOXICITY (estimated rate)” value is on record as “High”. `CN(Cc1cnc2nc(N)nc(N)c2n1)c1ccc(C(=O)N[C@@H](CCC(=O)O)C(=O)O)cc1` [Methotrexate]: the “EFFICACY (estimated rate)” value is recorded as “High” and the “TOXICITY (estimated rate)” value is reported as “Intermediate”. As to `CC(C)(S)[C@@H](N)C(=O)O` [Penicillamine], the “EFFICACY (estimated rate)” value is “Intermediate” and the “TOXICITY (estimated rate)” value is listed as “High”. Regarding `CCN(CCO)CCCC(C)Nc1ccnc2cc(Cl)ccc12` (centres unmarked) [Hydroxychloroquine], the “EFFICACY (estimated rate)” value is given as “Intermediate” and the “TOXICITY (estimated rate)” value is given as “Low”.

In the case of `O=P1(N(CCCl)CCCl)NCCCO1` (centres unmarked) [Cyclophosphamide], the “EFFICACY (estimated rate)” value is recorded as “High” and the “TOXICITY (estimated rate)” value is reported as “High”.

For `CC(=O)OC[C@H]1O[C@@H]([S-])[C@H](OC(C)=O)[C@@H](OC(C)=O)[C@@H]1OC(C)=O.CCP(CC)CC.[Au+]` [Auranofin], the “EFFICACY (estimated rate)” value is on record as “Intermediate” and the “TOXICITY (estimated rate)” value is listed as “Intermediate”.

System in the next data set: not given
Particulars: commonly prescribed NSAIDS.
For the compound `Cc1ccc(Cl)c(Nc2ccccc2C(=O)O)c1Cl` [Meclofenamate], the “Half Life” value is 2 to 3 h. With `CC(C(=O)O)c1cccc(Oc2ccccc2)c1` (centres unmarked) [Fenoprofen], the “Half Life” value was 2 h.

As to `O=C(O)Cc1ccccc1Nc1c(Cl)cccc1Cl` [Diclofenac], the “Half Life” value is 1.5 h. Regarding `O=C(O)CCc1nc(-c2ccccc2)c(-c2ccccc2)o1` [Oxaprozin], the “Half Life” value was 40 h.

`COc1ccc2c(c1)c(CC(=O)O)c(C)n2C(=O)c1ccc(Cl)cc1` [Indomethacin]: the “Half Life” value is 3 to 11 h. `CN1C(C(=O)Nc2ccccn2)=C(O)c2ccccc2S1(=O)=O` [Piroxicam]: the “Half Life” value was 30 to 86 h. On to `CC1=C(CC(=O)O)c2cc(F)ccc2/C1=C\c1ccc([S+](C)[O-])cc1` (centres unmarked) [Sulindac], for which the “Half Life” value is 16 h.

With `Cc1ccc(C(=O)c2ccc(CC(=O)O)n2C)cc1` [Tolmetin], the “Half Life” value is 1 to 2 h.
